Assay results: US10597367B2, “Metabotropic glutamate receptor negative allosteric modulators (NAMs) and uses thereof” (Sanford Burnham Prebys Medical Discovery Institute, priority 2014, dated 2020)
Like-named read-outs stand apart in the source and are kept apart here.

Key:
[1] = system: Male Wistar rats; assay: Forced Swim Test (FST); assay type: in vivo; details: rat, FIG. 1
Procedure: Male Wistar rats (Charles River, Hollister, Calif.), weighing 175-225 g (Charles River, Portage, Ind.) used for the forced swim test study were housed in pairs with food and water available ad libitum, except during testing, in a temperature and humidity controlled vivarium (21° C.). Rats were maintained on a 12-hour reverse light-dark cycle with lights on at 6 pm. All experimental procedures occurred during the dark cycle, were approved by the Institutional Animal Care and Use Committee of the Scripps Research Institute, and were in accordance with the Association for the Assessment and Accreditation of Laboratory Animal Care (AAALAC) guidelines. […]
After the habituation swim and 24 hours prior to the test swim, rats were administered one of three doses of a mGlu2/3 NAM, with doses and pretreatment time based on maximal brain penetration as determined by PK studies for each compound. Blood and brain tissue were collected immediately after the FST and the PK properties of each compound were analyzed together with FST behavior. […] Twenty-four hours after their first exposure, the animals were again placed in the swim apparatus for 5 min, and behaviors were monitored from above by video camera for subsequent analysis. The rater of the behavioral patterns was blind with respect to the experimental conditions being scored. […]

[2] = molecular target: mGlu2 receptor (Rattus norvegicus (Rat), UniProt P31421); assay: mGlu2 in vitro GIRK thallium flux assay; assay type: cell-based; details: NAM, HEK-293 GIRK cells
Procedure: All cell culture reagents were purchased from Invitrogen Corp. (Carlsbad, Calif.) unless otherwise noted. Compound activity at the group II (mGlu2 and mGlu3) mGlus was assessed using thallium flux through GIRK channels. Briefly, cells were plated into 384-well, black-walled, clear-bottomed poly-D-lysine-coated plates at a density of 15,000 cells/20 μL/well in DMEM containing 10% dialyzed FBS, 20 mM HEPES, and 100 units/mL penicillin/streptomycin (assay media). Plated cells were incubated overnight at 37° C. in the presence of 5% CO2. […] Cells were incubated for 1 h at room temperature, and the dye exchanged to assay buffer using an ELX405, leaving 20 μL/well. Test compounds were diluted to 2 times their final desired concentration in assay buffer (0.3% DMSO final concentration). […] Cell plates and compound plates were loaded onto a kinetic imaging plate reader (FDSS 6000 or 7000; Hamamatsu Corporation, Bridgewater, N.J.). Appropriate baseline readings were taken (10 images at 1 Hz; excitation, 470±20 nm; emission, 540±30 nm) and test compounds were added in a 20 μL volume and incubated for either 2.5 min or 60 min as indicated before the addition of 10 μL of thallium buffer with or without agonist. After the addition of agonist, data were collected for approximately an additional 2.5 min. Data were analyzed using Excel (Microsoft Corp, Redmond, Wash.). The slope of the fluorescence increase beginning 5 s after thallium/agonist addition and ending 15 s after thallium/agonist addition was calculated, corrected to vehicle and maximal agonist control slope values, and plotted in using either XLfit (ID Business Solutions Ltd) or Prism software (GraphPad Software, San Diego, Calif.) to generate concentration-response curves. Potencies were calculated from fits using a four-point parameter logistic equation. For concentration-response curve experiments, compounds were serially diluted 1:3 into 10 point concentration response curves and were transferred to daughter plates using an Echo acoustic plate reformatter (Labcyte, Sunnyvale, Calif.). Test compounds were applied and followed by EC80 concentrations of glutamate.

[3] = molecular target: mGlu3 receptor (Rattus norvegicus (Rat), UniProt P31422); assay: mGlu3 in vitro GIRK thallium flux assay; assay type: cell-based; details: NAM; test compound incubated 2.5 min before EC80 glutamate; HEK-293 GIRK cells
Procedure: All cell culture reagents were purchased from Invitrogen Corp. (Carlsbad, Calif.) unless otherwise noted. Compound activity at the group II (mGlu2 and mGlu3) mGlus was assessed using thallium flux through GIRK channels. Briefly, cells were plated into 384-well, black-walled, clear-bottomed poly-D-lysine-coated plates at a density of 15,000 cells/20 μL/well in DMEM containing 10% dialyzed FBS, 20 mM HEPES, and 100 units/mL penicillin/streptomycin (assay media). Plated cells were incubated overnight at 37° C. in the presence of 5% CO2. […] Cells were incubated for 1 h at room temperature, and the dye exchanged to assay buffer using an ELX405, leaving 20 μL/well. Test compounds were diluted to 2 times their final desired concentration in assay buffer (0.3% DMSO final concentration). […] Cell plates and compound plates were loaded onto a kinetic imaging plate reader (FDSS 6000 or 7000; Hamamatsu Corporation, Bridgewater, N.J.). Appropriate baseline readings were taken (10 images at 1 Hz; excitation, 470±20 nm; emission, 540±30 nm) and test compounds were added in a 20 μL volume and incubated for either 2.5 min or 60 min as indicated before the addition of 10 μL of thallium buffer with or without agonist. […] Data were analyzed using Excel (Microsoft Corp, Redmond, Wash.). […] Potencies were calculated from fits using a four-point parameter logistic equation. […]

[4] = system: cultured spinal cord astrocytes; details: astrocytes from wild-type and mGlu2 knockout mice, not mGlu3 knockout; cited from earlier work
[5] = system: reserpine-treated rat; details: cited from earlier work
[6] = system: wild-type and mGlu2 knockout mice; details: acute 0.5, 1 or 5 mg/kg, i.p.; not in mGlu3 knockout mice; cited from earlier work
[7] = system: R6/2 mice; details: daily subcutaneous 20 mg/kg (MTD) beginning at 4 weeks; cited from earlier work
[8] = system: SOD1G93A mice; details: continuous treatment 1 or 5 mg/kg/day; cited from earlier work

Chain of mGlu2 receptor (P31421 19-872): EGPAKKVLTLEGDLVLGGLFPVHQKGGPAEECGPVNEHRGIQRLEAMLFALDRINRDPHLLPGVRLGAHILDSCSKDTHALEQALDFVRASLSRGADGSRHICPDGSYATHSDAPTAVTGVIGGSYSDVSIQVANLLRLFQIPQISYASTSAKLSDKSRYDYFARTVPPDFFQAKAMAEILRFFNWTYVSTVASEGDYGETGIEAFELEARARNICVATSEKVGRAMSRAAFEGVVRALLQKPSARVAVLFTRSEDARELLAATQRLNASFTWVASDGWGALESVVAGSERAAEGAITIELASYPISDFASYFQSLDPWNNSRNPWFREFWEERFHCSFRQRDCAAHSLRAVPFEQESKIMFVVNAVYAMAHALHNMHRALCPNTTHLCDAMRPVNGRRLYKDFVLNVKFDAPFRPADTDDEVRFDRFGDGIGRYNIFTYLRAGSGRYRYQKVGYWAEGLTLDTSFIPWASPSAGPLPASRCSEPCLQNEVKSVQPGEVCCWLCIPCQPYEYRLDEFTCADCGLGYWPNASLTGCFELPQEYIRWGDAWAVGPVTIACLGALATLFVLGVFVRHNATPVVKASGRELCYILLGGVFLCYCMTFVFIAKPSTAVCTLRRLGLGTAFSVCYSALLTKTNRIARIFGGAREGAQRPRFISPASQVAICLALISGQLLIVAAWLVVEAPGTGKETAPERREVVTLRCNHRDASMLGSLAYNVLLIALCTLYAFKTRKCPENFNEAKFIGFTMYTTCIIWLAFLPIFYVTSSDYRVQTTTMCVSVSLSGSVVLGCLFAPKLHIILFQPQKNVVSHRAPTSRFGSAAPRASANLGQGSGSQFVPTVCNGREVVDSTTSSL
Chain of mGlu3 receptor (P31422 23-879): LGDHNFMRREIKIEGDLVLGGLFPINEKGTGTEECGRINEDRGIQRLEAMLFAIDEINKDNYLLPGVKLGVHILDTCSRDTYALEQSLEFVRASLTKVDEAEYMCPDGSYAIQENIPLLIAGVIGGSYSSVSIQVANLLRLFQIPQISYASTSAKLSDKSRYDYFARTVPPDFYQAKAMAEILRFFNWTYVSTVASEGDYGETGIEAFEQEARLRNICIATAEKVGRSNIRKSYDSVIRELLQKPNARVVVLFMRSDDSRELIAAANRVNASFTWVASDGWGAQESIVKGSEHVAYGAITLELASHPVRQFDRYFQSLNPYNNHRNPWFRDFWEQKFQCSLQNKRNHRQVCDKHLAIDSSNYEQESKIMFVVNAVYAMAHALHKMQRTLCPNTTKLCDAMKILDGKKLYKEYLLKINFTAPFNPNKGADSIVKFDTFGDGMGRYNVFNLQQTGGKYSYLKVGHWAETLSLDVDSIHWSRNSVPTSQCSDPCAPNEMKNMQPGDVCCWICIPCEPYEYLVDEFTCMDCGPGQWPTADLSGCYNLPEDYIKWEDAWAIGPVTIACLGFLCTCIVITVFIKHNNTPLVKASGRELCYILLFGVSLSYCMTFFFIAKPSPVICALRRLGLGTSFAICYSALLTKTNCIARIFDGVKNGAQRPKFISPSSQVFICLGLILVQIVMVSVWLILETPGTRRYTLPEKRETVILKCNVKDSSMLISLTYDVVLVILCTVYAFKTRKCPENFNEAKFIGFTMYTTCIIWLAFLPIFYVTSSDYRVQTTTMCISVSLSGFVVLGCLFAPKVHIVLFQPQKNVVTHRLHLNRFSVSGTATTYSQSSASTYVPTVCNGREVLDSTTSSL

SMILES: N#Cc1cc(C2=Nc3ccc(Br)cc3NC(=O)C2)ccn1 [Example 182, 4-(8-Bromo-2-oxo-2,3-dihydro-1H-benzo[b][1,4]diazepin-4-yl)picolinonitrile]
- antidepressant activity in the Forced Swim Test (immobility, swimming) [1]: antidepressant activity by decreasing immobility and increasing swimming

SMILES: O=C1CC(c2ccnc(Br)c2)=Nc2ccc(C(F)(F)F)cc2N1 [Example 191, 4-(2-Bromopyridin-4-yl)-8-(trifluoromethyl)-1,3-dihydro-2H-benzo[b][1,4]diazepin-2-one]
- antidepressant activity in the Forced Swim Test (immobility, swimming) [1]: antidepressant activity by decreasing immobility and increasing swimming

SMILES: Cc1cc2c(cc1C(F)(F)F)NC(=O)CC(c1cccc(Oc3ccccc3)c1)N2 (centres unmarked) [Example 177, 7-Methyl-4-(3-phenoxyphenyl)-8-(trifluoromethyl)-4,5-dihydro-1H-benzo[b][1,4]diazepin-2(3H)-one]
- EC50 ([2]; test compound incubated 2.5 min before EC80 glutamate, read-out: mGlu2 EC50 (μM) (2.5 min)): > 10 µM
- EC50 ([2]; read-out: mGlu2 EC50 (μM) (60 min), test compound incubated 60 min before EC80 glutamate): > 10 µM
- EC50 [3]: > 10 µM

SMILES: N[C@@]1(C(=O)O)CO[C@H]2[C@H](C(=O)O)[C@H]21 [LY379268]
- GDNF levels in astrocytes [4]: enhanced GDNF levels
- reserpine-induced akinesia after systemic administration ([5]; 0.1, 1, 10 mg/kg ip): did not reverse reserpine-induced akinesia
- locomotor activity after intracerebroventricular administration ([5]; 1, 5, 10, 20 nmol/2 μl icv, reserpine (5 mg/kg ip)-treated rat): dose-dependent increase in locomotor activity
- spinal cord GDNF levels [6]: enhanced spinal cord GDNF levels
- phenotype in R6/2 mice [7]: dramatically improves the phenotype
- neurological disability in SOD1G93A mice [8]: beneficial effect on neurological disability
